System: HEK293 cells
Test: Preliminary screening as mRNA vectors, EGFP mRNA transfection of HEK293 cells
Format: cell-based
Details: EGFP mRNA 50 ng per well, 96-well plates; percentage of GFP fluorescent cells relative to total number of cells (Hoechst)
How it was run: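 Each well of HEK293 cells received 50 ng of EGFP mRNA. Efficiency was expressed as percent GFP-expressing cells over Hoechst-defined total cell number.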

Compound	Absolute mRNA transfection efficiency in HEK293 cells
CCCCCCCCCCCCCCSc1nc(NCCCCCCCC)nc(NCC2CCN(C)CC2)n1 [Compound D10S14N8]	43.8%
CCCCCCCCCCCSc1nc(NCCCCCCCCC)nc(NCCN2CCCC2)n1 [Compound D3S11N9]	24.5%
CCCCCCCCCCCCN(CCCCCCCCCCCC)c1nc(NCC2CCN(C)CC2)nc(SCCCCCCCC)n1 [D10S8^2N12]	1.5%
CCCCCCCCCCCCCCCNc1nc(NCCN(C)C)nc(SCCCCCCCCCC)n1 [Compound D1S10N15]	2.8%
CCCCCCCCCSc1nc(NCCCCCCCC)nc(NCCN2CCN(C)CC2)n1 [Compound D5S9N8]	6.0%
CCCCCCCCCCCCCCCSc1nc(NCCCCCCCCCCCC)nc(NCCN2CCCCC2)n1 [Compound D4S15N12]	1.6%
CCCCCCCCCCCCCCCNc1nc(NCCN2CCOCC2)nc(SCCCCCC)n1 [Compound D2S6N15]	1.2%
CCCCCCCCCCCCCCCCCCNc1nc(NCCN2CCN(C)CC2)nc(SCCCCCCC)n1 [Compound D5S7N18]	38.5%
CCCCCCCCCCCNc1nc(NCC2CCN(C)CC2)nc(SCCCCCCCCCCC)n1 [Compound D10S11N11]	27.7%
CCCCCCCCCCCCCCCCCCNc1nc(NCCCN(C)C)nc(SCCCCCCCCCCCCCCC)n1 [Compound D6S15N18]	1.9%
CCCCCCCCSc1nc(NCCCN2CCN(C)CC2)nc(SCCCCCCCC)n1 [Compound D9S8S8]	53.3%
CCCCCCCCCCCSc1nc(NCCCCCCCC)nc(NCCN(CC)CC)n1 [Compound D7S11N8]	13.4%
CCCCCCCCCCCCSc1nc(NCCN(CC)CC)nc(N(CCCCCCCCCCCC)CCCCCCCCCCCC)n1 [D7S12^2N12]	1.9%
CCCCCCCCCCCCCCCCCCSc1nc(NCCCN2CCOCC2)nc(SCCCCCC)n1 [Compound D8S6S18]	12.6%
CCCCCCCCCCCCSc1nc(NCCN2CCCC2)nc(SCCCCCCCC)n1 [Compound D3S8S12]	3.5%
CCCCCCCCCCSc1nc(NCCCCCCCC)nc(NCCN2CCCCC2)n1 [Compound D4S10N8]	0.1%
CCCCCCCCCCCCCCCNc1nc(NCCCN(C)C)nc(SCCCCCCCCCCC)n1 [Compound D6S11N15]	13.1%
CCCCCCCCCCCCNc1nc(NCCCN(C)C)nc(SCCCCCCCCC)n1 [Compound D6S9N12]	39.3%
CCCCCCCCCCCCCCCCCCSc1nc(NCCN2CCOCC2)nc(N(CCCCCCCCCCCC)CCCCCCCCCCCC)n1 [D2S18^2N12]	0.0%
CCCCCCCCCCCCCCCSc1nc(NCCCCCCCCCCCC)nc(NCCN2CCCC2)n1 [Compound D3S15N12]	7.5%
CCCCCCCCCCCCCCSc1nc(NCCN2CCOCC2)nc(SCCCCCCC)n1 [Compound D2S7S14]	11.0%
CCCCCCCCCCCCCCCCSc1nc(NCCCCCCCC)nc(NCCN(C)C)n1 [Compound D1S16N8]	40.3%
CCCCCCCCNc1nc(NCCCN2CCOCC2)nc(SCCCCCCCC)n1 [Compound D8S8N8]	1.3%
CCCCCCCCCSc1nc(NCCCCCC)nc(NCCN2CCCC2)n1 [Compound D3S9N6]	0.2%
CCCCCCSc1nc(NCCN(C)C)nc(SCCCCCC)n1 [Compound D1S6S6]	0.7%
CCCCCCCCCCCCNc1nc(NCC2CCN(C)CC2)nc(SCCCCCCC)n1 [Compound D10S7N12]	63.7%
CCCCCCCCCCCCCCCCCCNc1nc(NCCN2CCCCC2)nc(SCCCCCCCCCCCCCC)n1 [Compound D4S14N18]	2.2%

Source: patent US20230123334A1, “AMINO LIPID COMPOUND, PREPARATION METHOD THEREFOR, AND APPLICATION THEREOF” (SHENZHEN SHENXIN BIOTECHNOLOGY CO., LTD., priority 2020, published 2023)
